In data set [1] the target is T1, CYP2D6 (Homo sapiens, UniProt P10635). Nature of the data set: CYP inhibition in human liver microsomes, CYP2D6 (dextromethorphan probe).
Data set [2] concerns the target T2, CYP1A2 (Homo sapiens, UniProt P05177).
T2 sequence (P05177 1-516): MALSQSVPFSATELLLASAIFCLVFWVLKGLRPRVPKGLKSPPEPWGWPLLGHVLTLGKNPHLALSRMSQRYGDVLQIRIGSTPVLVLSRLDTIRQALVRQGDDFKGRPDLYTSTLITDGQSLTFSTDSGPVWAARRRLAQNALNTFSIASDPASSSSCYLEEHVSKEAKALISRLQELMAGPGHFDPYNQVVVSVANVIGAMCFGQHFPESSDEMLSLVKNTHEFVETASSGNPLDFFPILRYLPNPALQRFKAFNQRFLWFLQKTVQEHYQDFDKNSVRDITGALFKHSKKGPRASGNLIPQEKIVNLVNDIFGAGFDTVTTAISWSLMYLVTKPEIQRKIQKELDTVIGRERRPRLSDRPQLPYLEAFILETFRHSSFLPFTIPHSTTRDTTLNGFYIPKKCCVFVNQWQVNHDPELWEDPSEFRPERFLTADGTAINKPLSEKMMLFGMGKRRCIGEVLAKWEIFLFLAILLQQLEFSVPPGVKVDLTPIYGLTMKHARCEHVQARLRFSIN
As to the kind of experiment: CYP inhibition in human liver microsomes, CYP1A2 (tacrine probe).

In data set [3] the target is T3, CYP3A (Homo sapiens, UniProt P08684). As to the kind of experiment: in vitro. To be noted: microsomes.
The target in data set [4] is T3, CYP3A. Nature of the data set: in vitro. Conditions: microsomes. The source holds these as a separate data set.
Data set [5] deals with major human CYP isoforms (CYP1A2, 2C9, 2C19, 2D6 and 3A). Nature of the data set: CYP inhibition in human liver microsomes, summary over the isoform panel. Conditions: HLM + NADPH.
Data set [6] addresses T2, CYP1A2. Conditions: microsomes.
The target in data set [7] is T4, CYP2C9 (Homo sapiens, UniProt P11712). To be noted: microsomes.
In data set [8] the target is T5, CYP2C19 (Homo sapiens, UniProt P33261). Conditions: microsomes.
In data set [9] the target is T1, CYP2D6. To be noted: microsomes.
Data set [10] addresses T3, CYP3A. Conditions: microsomes.
Data set [11] concerns the target T3, CYP3A. To be noted: microsomes. The source holds these as a separate data set.
Data set [12] deals with major human CYP isoforms (CYP1A2, 2C9, 2C19, 2D6 and 3A).
Data set [13] shares this test system. Nature of the data set: in vitro. Conditions: microsomes.
The target in data set [14] is T4, CYP2C9. As to the kind of experiment: CYP inhibition in human liver microsomes, CYP2C9 ((S)-warfarin probe). Conditions: for Activation of CYP2C9 observed at concentrations up to: HLM + NADPH, (S)-warfarin probe.
The target in data set [15] is T5, CYP2C19. Nature of the data set: CYP inhibition in human liver microsomes, CYP2C19 ((S)-mephenytoin probe). Conditions: for Activation of CYP2C19 observed at concentrations up to: HLM + NADPH, (S)-mephenytoin probe.
Data set [16] has as its system ticlopidine metabolism in human liver microsomes (TSOD and TSO-NEM formation). Nature of the data set: Trapping of reactive metabolites of ticlopidine with NEM in human liver microsomes. The format is in vitro ADME. To be noted: ticlopidine 1 μM. How it is done:
Ticlopidine (1 μM) was incubated at 37 °C for 15 min in the presence or absence of various concentrations of NEM with HLM (0.5 mg/mL), NADPH (1 mM) and KPi (0.1 M), in a final incubation volume of 100 µL. Assay conditions were optimized with regard to protein concentration and incubation time, based on linear formation of TSOD. The incubations were performed over a concentration range of NEM (0.0007–40 mM) including a vehicle control, for a total of twelve incubations. A 50 µL sample was withdrawn at 15 min and the reactions were quenched in 100 µL of 0.1% formic acid in ACN containing an IS. Samples were centrifuged at 2000× g for 10 min and supernatants (75 µL) were removed and diluted with 0.1% formic acid in water (150 µL). The prepared samples were analyzed by LC-MS/MS for ticlopidine, N-ethylmaleimide-trapped S-oxide (TSO-NEM) and ticlopidine S-oxide dimer (TSOD). Peak areas were normalized to an IS, and the percentage of metabolite formed at the end of the incubation was calculated and compared to the incubation containing the highest peak area to IS ratio of metabolite (set at 100%).
The prepared samples were analyzed by LC-MS/MS using a Cohesive LX-2 Transcend Multiplexing system with Agilent 1100 series high pressure liquid chromatography (HPLC) pumps from Agilent Technologies (Santa Clara, CA, USA) and an HTS PAL autosampler from CTC Analytics (Carrboro, NC, USA) connected to a Sciex API5500-QTrap mass spectrometer with a Turbo V™ ion source (Foster City, CA, USA). A Phenomenex Kinetex Phenyl-Hexyl HPLC column (30 × 2.1 mm, 2.6 µ) was used with 0.1% formic acid in water (mobile phase A) or 0.1% formic acid in ACN (mobile phase B) flowing at 0.55 mL/min in the following gradient: mobile phase B was held at 1% for 0.4 min, increased to 5% over 0.2 min, to 55% over 6.7 min and to 95% over 0.5 min, where it was held for 0.75 min prior to re-equilibration at 1%. LC-MS/MS multiple reaction (MRM) transitions for the CYP inhibition assay were reported previously. […]

The target of data set [17] is T2, CYP1A2. As to the kind of experiment: in vitro. Conditions: microsomes.

Like-named read-outs stand apart in the source and are kept apart here.

T3 sequence (P08684 2-503 limits assumed): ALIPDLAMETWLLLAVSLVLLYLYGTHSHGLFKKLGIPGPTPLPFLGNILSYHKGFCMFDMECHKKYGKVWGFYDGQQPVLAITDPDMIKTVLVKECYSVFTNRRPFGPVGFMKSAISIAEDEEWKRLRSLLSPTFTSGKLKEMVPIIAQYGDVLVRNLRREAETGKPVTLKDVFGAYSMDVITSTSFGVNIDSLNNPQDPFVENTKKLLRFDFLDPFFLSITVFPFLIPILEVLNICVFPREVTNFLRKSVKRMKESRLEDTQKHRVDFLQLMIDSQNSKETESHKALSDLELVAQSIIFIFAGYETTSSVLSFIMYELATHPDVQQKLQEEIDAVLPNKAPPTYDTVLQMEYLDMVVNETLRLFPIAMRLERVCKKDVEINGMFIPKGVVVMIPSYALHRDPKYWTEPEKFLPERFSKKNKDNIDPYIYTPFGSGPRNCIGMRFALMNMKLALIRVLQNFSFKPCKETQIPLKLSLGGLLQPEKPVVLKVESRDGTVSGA
T4 sequence (P11712 whole entry): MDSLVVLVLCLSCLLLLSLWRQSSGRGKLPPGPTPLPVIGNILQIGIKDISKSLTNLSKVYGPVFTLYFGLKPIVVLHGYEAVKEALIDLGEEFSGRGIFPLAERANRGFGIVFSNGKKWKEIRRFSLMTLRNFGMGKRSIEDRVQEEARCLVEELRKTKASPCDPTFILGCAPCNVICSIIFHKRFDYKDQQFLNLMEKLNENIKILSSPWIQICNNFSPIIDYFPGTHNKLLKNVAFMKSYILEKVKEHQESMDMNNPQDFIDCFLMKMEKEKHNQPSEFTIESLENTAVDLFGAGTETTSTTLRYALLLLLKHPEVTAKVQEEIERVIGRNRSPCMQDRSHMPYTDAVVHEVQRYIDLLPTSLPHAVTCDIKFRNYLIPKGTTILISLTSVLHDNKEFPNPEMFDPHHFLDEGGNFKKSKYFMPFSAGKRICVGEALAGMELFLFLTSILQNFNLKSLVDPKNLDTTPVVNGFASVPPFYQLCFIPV
T5 sequence (P33261 whole entry): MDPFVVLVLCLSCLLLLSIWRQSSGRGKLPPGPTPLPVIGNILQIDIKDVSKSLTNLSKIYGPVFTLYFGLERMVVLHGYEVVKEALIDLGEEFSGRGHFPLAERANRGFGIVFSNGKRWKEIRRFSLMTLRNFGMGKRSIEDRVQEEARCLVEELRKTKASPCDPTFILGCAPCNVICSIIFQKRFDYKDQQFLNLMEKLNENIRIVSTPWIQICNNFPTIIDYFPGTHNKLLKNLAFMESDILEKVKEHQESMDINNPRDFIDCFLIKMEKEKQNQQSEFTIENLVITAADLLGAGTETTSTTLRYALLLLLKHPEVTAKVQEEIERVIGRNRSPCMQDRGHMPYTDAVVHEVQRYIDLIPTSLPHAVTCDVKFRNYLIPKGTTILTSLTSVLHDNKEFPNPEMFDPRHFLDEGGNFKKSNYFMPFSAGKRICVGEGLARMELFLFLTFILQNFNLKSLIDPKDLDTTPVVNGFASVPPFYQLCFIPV
T1 sequence (P10635 whole entry): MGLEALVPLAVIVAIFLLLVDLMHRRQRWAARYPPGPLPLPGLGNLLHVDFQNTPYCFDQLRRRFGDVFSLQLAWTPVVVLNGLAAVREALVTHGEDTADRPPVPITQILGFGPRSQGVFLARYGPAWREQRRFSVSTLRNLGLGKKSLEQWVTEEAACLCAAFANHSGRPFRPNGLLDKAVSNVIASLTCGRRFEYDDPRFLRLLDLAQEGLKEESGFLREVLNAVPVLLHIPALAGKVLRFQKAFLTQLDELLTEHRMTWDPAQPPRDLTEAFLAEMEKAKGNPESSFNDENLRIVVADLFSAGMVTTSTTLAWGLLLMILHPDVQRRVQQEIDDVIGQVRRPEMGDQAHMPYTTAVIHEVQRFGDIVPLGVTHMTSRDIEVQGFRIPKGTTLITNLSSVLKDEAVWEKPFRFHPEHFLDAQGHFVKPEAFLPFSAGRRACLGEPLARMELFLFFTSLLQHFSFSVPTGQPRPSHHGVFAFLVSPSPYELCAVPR

With `O=C(O)CCP(CCC(=O)O)CCC(=O)O` [Tris(2-carboxyethyl) phosphine (TCEP), Tris(2-carboxyethyl) phosphine], the “Activation of CYP2D6” value in data set [1] (HLM + NADPH, dextromethorphan probe) is “activation was observed”.

As for `CN1CCCCC1` [N-Methylpiperidine], the “Activation of CYP1A2 observed at concentrations up to” value in [2] (HLM + NADPH, tacrine probe) is given as “up to 12.5 mM”.

For the compound `CC(=O)N[C@@H](CCCCN)C(=O)O` [N-Acetyl-lysine1, N-Acetyl-lysine], the IC50 in data set [3] and in data set [4] was greater than 50 mM throughout. In data set [5], the “Inhibition of CYP isoforms at concentrations tested” value (shortened to “Inhibition of CYP isoforms”) was “did not inhibit CYP isoforms at concentrations tested”. Also, the “Concentration up to which no CYP inhibition was shown” value in data set [5] (all isoforms tested) is “up to 50 mM”.

`O=[As][O-].[Na+]` [Arsenite, sodium arsenite]: the concentration for half-maximal inhibition (IC50) in data set [6], in data set [7], in data set [8], in [9], in data set [10] and in data set [11] was greater than 10 mM in each case. For the same compound, the “Concentration up to which no CYP inhibition was shown” value in data set [12] is “up to 10 mM”. The “Inhibition of CYP isoforms” value in data set [12] is given as “did not inhibit CYP isoforms at concentrations tested”.

As for `C1COCCN1` [Morpholine], in data set [6], the “Activation of CYP1A2” value is listed as “activation was observed”. The concentration for half-maximal inhibition (IC50) in data set [13] is 7.9 to 16 mM; in data set [2], greater than 100 mM; in data set [14] it was 7.9 mM; in data set [15], 14 mM; in data set [1], 13 mM.

Regarding `CN1C(=O)C=CC1=O` [N-Methylmaleimide], the “Activation of CYP2C9 observed at concentrations up to” value in data set [14] is “up to 0.2 mM”. For the same compound, the “Activation of CYP2C19 observed at concentrations up to” value in data set [15] is listed as “up to 0.2 mM”.

On to `CCN1C(=O)C=CC1=O` [N-Ethylmaleimide (NEM), N-Ethylmaleimide], for which the “NEM concentration at and above which TSO-NEM formation rapidly decreases” value in data set [16] (HLM 0.5 mg/mL, NADPH, 15 min) is no less than 165 µM. For the same compound, the “NEM concentrations with initial increase in TSOD formation” value in data set [16] (HLM 0.5 mg/mL, NADPH, 15 min) is 0.7 to 18.3 µM. Besides, the “Response of TSO-NEM formation to increasing NEM concentration” value in data set [16] (NEM 0.007–40 mM) was “bell-shaped response curve”. The half-maximal inhibitory concentration (IC50) in [17] was 0.12 mM; in [14], 3.2 mM; in [15], 2.9 mM; in [1], greater than 40 mM. Besides, in data set [14], the “Activation of CYP2C9 observed at concentrations up to” value was “up to 1 mM”. Moreover, the “Activation of CYP2C19 observed at concentrations up to” value in data set [15] is reported as “up to 0.4 mM”.

Turning to `CC1(C)CC(=O)CC(=O)C1` [5,5-dimethyl-1,3-cyclohexanedione], the “Inhibition of CYP isoforms” value in [5] was “did not inhibit CYP isoforms at concentrations tested”.

(Values after article PMC5536041, “Inhibitory Effects of Trapping Agents of Sulfur Drug Reactive Intermediates against Major Human Cytochrome P450 Isoforms” (International Journal of Molecular Sciences, 2017).)
